Earlier results on 17 compounds are cited in US20230002631A1, “WATER-WASHABLE COMPOSITIONS FOR USE IN 3D PRINTING” (BASF SE, priority 2019, published 2023).

Like-named read-outs stand apart in the source and are kept apart here.

The conditions of the data set: for Amount that dissolves in water: room temperature; for Water solubility (g/L at 20° C.): slightly water-soluble reactive diluents (B1b).

Turning to `C=CC(=O)OCCOCCOCC` [2-(2-ethoxyethoxy)ethyl acrylate(EOEOA), 2-(2-ethoxyethoxy)ethyl acrylate], the “Amount that dissolves in water” value was 13.4 g/L.
On to `C=CC(=O)OCCOC(=O)NCCCC` [2-[[(butylamino)carbonyl]oxy]ethyl acrylate], for which, for the setting “20° C.”, the “Water solubility (g/L at 20° C.)” value is given as 5.0 g/L.
For `C=CN1CCCCCC1=O` [N-Vinyl-caprolactam (NVC), N-Vinyl-caprolactam], the Water solubility (temperature not given) is given as 40 g/L.
For the compound `C=Cn1ccnc1` [N-Vinyl-imidazole (VIM), N-Vinyl-imidazole], the Water solubility entry (stated in words) was “Fully miscible”.
With `C=CN1CCCC1=O` [N-Vinyl-pyrrolidone (NVP), N-Vinyl-pyrrolidone], the Water solubility (20° C.) is on record as 100 g/L at 68° F. (20° C.).
As to `C=C(C)C(=O)OCCOCCOCCOCCOC(=O)C(=C)C` [Tetraethylene glycol dimethacrylate], under “temperature not given”, the Water solubility was 12.6 g/L.
For `C=CC(=O)OCCOCCOCCOC(=O)C=C` [Triethylene glycol diacrylate (TEGDA), Triethylene glycol diacrylate], where the note is “temperature not given”, the Water solubility is 18 g/L.
For `C=CC(=O)OCC1(CC)COCOC1` [cyclic trimethylolpropane formal acrylate], where the note is “20° C.”, the “Water solubility (g/L at 20° C.)” value is listed as 9.3 g/L.
Consider `C=CC(=O)OCCO` [hydroxyethyl acrylate], for which the Water solubility (25° C.) is recorded as 100 g/L.
In the case of `C=C(C)C(=O)OCCO` [hydroxyethyl methacrylate], the “Amount that dissolves in water” value is listed as 11.8 g/L.
Take `C=CC(=O)OCCCO` [hydroxypropyl acrylate]: the Water solubility (25° C.) is listed as 100 g/L.
Consider `C=C(C)C(=O)OCCCO` [hydroxypropyl methacrylate], for which the “Water solubility (g/L at 20° C.)” value (20° C.) was less than 10 g/L.
As for `C=C(C)C(=O)OCCOCCOCCOC(=O)C(=C)C` [triethylene glycol dimethacrylate], for the setting “20° C.”, the “Water solubility (g/L at 20° C.)” value is listed as 3.6 g/L.
With `C=CC(=O)OCC(C)OCC(C)OCC(C)OC(=O)C=C` (centres unmarked) [tripropylene glycol diacrylate], the “Water solubility (g/L at 20° C.)” value (20° C.) is on record as 4.0 g/L.
On to Poly(ethylene glycol) diacrylate, for which, under “temperature not given”, the Water solubility was 21 g/L.
Consider Polyethylene glycol (200) diacrylate, for which the Water solubility entry (stated in words) is recorded as “Water soluble”.
For the compound Polyethylene glycol (400) diacrylate, the Water solubility entry (stated in words) is recorded as “Water soluble”.
